Measurements from article PMC7767053, “Functional Analysis of Odorant-Binding Proteins 12 and 17 from Wheat Blossom Midge Sitodiplosis mosellana Géhin (Diptera: Cecidomyiidae)” (Insects, 2020).
“Also recorded” adds a separate entry of the source.

Assays:
[1] = biological target: SmosOBP12 (Sitodiplosis mosellana, UniProt A0A346RTY7); experiment: Fluorescence competitive binding assay with 1-NPN probe, recombinant SmosOBP12
Description: (§1) To determine binding affinities of SmosOBP12 and SmosOBP17 to host plant volatile compounds, fluorescence competitive binding assays were conducted using 1-N-phenyl-naphthylamine (1-NPN) as the fluorescent probe. Twenty-eight volatile compounds from winter wheat (Table 2) were selected based on our previous research. Both the probe and candidate ligands were dissolved in chromatographic-grade methanol to obtain 1 mM stock solutions, whereas recombinant SmosOBPs were diluted in 20 mM Tris-HCl (pH 7.4) to 2 μM. Fluorescence intensity was detected on an F-4600 fluorescence spectrophotometer (Hitachi, Tokyo, Japan) with a 1 cm light path quartz cuvette. Slits of both excitation and emissions were 10 nm in width. The probe was excited at 337 nm, and emission spectra were recorded between 370 and 550 nm.
(§2) Affinities of SmosOBPs to tested volatile ligands were measured by competition assays: to the 1 mL solution containing 2 μM recombinant protein and 2 μM 1-NPN, 1 mM solution of each putative volatile ligand (in a 2 µL aliquot) was added to final concentrations of 2–14 μM for SmosOBP12 and 2–40 μM for SmosOBP17, respectively. Maximal fluorescence intensities were plotted against ligand concentrations. Data were obtained from three independent measurements.
(§3) The Kd value was calculated using GraphPad Prism 5 (GraphPad Software Inc., La Jolla, CA, USA) via nonlinear regression for a unique site of binding. The inhibition constant (Ki) of each ligand competitor was calculated from the corresponding IC50 value (the concentration of competitor displacing 50% of initial fluorescence intensity) according to the equation: Ki = [IC50]/(1 + [1-NPN]/K1-NPN), where [1-NPN] is the free concentration of 1-NPN, and K1-NPN is the dissociation constant of the SmosOBPs/1-NPN complex.

[2] = biological target: SmosOBP17 (Sitodiplosis mosellana, UniProt A0A346RTY9); experiment: Fluorescence competitive binding assay with 1-NPN probe, recombinant SmosOBP17
SmosOBP17, sequence (A0A346RTY9 entry or part of it): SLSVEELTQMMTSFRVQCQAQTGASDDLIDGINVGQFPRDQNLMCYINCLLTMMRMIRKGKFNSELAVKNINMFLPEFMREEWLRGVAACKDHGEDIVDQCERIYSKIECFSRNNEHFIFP
Description: as §1, §2, §3

[3] = system: S. mosellana females; experiment: Y-tube olfactometer bioassay; type: in vivo, Sitodiplosis mosellana; conditions: 10 μL of 20 μg/μL in paraffin oil vs paraffin oil control; 60 females
Description: Behavioral responses of S. mosellana females to the 28 volatile ligands were measured in a glass Y-tube olfactometer. The base and two arms of the Y-tube are 15 cm in length and 25 mm in internal diameter. The angle between arms is 60°. A 10 μL aliquot of the test chemical in paraffin oil at a concentration of 20 μg/μL [45] was applied to a filter paper strip (20 × 20 mm), which was allowed to evaporate for 20 s and then placed into one of the two odor bottles. The other odor bottle contained a filter paper strip treated with 10 μL of paraffin oil as the control. Moist, activated-charcoal filtered air entered both odor bottles connected by Teflon tubing to their respective arms of the Y-tube. The airflow rate through the olfactometer was 100 mL/min, which was measured by a float rotor meter. A newly emerged female S. mosellana adult was introduced into the end of the base of the Y-tube, which was then immediately covered with a dark paper box. An office lamp (20 W) illuminated the joint of two arms to facilitate observation. The choice was made if the S. mosellana female walked or flew 5 cm past the Y junction within 5 min and remained there for at least 15 s. Otherwise, it would be recorded as no-choice. Odor source was renewed for every five individuals. After testing for 10 individuals, the Y-tube was thoroughly cleaned with 95% ethanol and dried, and the treatment and control arms were switched to avoid the directional bias. After one odor source was tested, the Y-tube, odor bottles, and Teflon tubing were cleaned and dried before reuse. All experiments were conducted in a laboratory with a temperature of 25 ± 1 °C from 5:00 to 9:00 p.m. Sixty female adults were tested in each treatment group, and each individual was used only once. The choice response of insects in each treatment group was analyzed by the chi-square test using SPSS 20.0 software (Chicago, IL, USA). Non-selecting insects were recorded but not included in the statistical analysis.

[4] = system: SmosOBP11; set-up: method as in PMID 31017726; conditions: cited from earlier work
[5] = system: SmosOBP16; set-up: method as in PMID 31017726; conditions: cited from earlier work
[6] = system: SmosOBP21; set-up: method as in PMID 31017726; conditions: cited from earlier work
[7] = fluorescence competitive binding

SmosOBP12, sequence (A0A346RTY7 entry or part of it): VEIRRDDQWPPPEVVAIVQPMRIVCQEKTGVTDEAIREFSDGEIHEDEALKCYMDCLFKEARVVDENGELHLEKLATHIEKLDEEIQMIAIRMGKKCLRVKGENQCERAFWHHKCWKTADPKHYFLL

Ki ([1]; calculated from IC50, Ki = [IC50]/(1 + [1-NPN]/K1-NPN), read-out: SmosOBP12 Ki): > 11.3 µM
IC50 ([1]; displacement of 1-NPN, 2 μM protein, 2 μM 1-NPN, ligand 2–14 μM, three independent measurements, read-out: SmosOBP12 IC50): > 14 µM
Ki ([2]; calculated from IC50, Ki = [IC50]/(1 + [1-NPN]/K1-NPN)): > 30 µM
IC50 ([2]; displacement of 1-NPN, 2 μM protein, 2 μM 1-NPN, ligand 2–40 μM, three independent measurements, read-out: SmosOBP17 IC50): > 40 µM
Compound: C=C/C(C)=C/C/C=C(\C)CCC=C(C)C [α-Farnesene]
binding to SmosOBP12 (in words) [1, 7]: did not show any affinity; also recorded: no affinity
binding to SmosOBP17 (in words) [2, 7]: did not show any affinity; also recorded: no affinity
behavioral response of S. mosellana female adults [3]: intensive response; also recorded: significant repulsion; also recorded: repelled
binding to SmosOBP11 (in words) [4]: no affinity
binding to SmosOBP16 (in words) [5]: no affinity
binding to SmosOBP21 (in words) [6]: no affinity
